{"source": "patent US9150734B2", "about": "“Zwitterionic lignin derivatives for marine antifouling coatings” (Empire Technology Development LLC, priority 2012, dated 2015)", "origin": "cited, not measured here", "system": "diatom species", "details": "variety of diatom species, various concentrations; variation between species"}
{"substance": "benzalkonium chloride", "values": [{"measurement": "concentration at which all diatoms were killed", "value": "less than 0.001%"}]}
